15 compounds from US6881741B2 (ViroChem Pharma Inc., priority 2001, dated 2005) can be followed below.

A value given as a limit tells only on which side of the number the result lay.

In the assay the target is recombinant HCV NS5B (HCV RNA-dependent RNA polymerase) (Hepatitis C virus genotype 1b, UniProt P26663). The assay is described as follows: biochemical. The following applies: related polymerase activity (Example 27 list); read-out: IC50.
recombinant HCV NS5B (HCV RNA-dependent RNA polymerase), sequence (P26663 2420-3010 limits assumed): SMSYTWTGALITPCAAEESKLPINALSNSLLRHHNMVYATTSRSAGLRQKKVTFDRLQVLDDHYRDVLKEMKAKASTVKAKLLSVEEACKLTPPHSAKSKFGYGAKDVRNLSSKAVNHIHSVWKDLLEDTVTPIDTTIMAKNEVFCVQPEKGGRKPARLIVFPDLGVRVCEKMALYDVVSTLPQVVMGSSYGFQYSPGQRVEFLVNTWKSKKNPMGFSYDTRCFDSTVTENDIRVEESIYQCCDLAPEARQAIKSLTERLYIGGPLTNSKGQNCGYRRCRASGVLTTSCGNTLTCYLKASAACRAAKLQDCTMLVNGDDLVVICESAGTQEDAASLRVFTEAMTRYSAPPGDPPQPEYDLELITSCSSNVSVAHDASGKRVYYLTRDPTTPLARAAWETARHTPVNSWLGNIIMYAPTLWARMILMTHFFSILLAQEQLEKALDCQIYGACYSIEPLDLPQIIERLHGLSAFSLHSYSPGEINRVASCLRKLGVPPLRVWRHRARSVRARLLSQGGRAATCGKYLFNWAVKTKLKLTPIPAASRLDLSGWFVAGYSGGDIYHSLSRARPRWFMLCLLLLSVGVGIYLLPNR

As for `Cc1ccc(S(=O)(=O)N(C)c2cc(-c3ccccc3)sc2C(=O)O)c(C)c1` [Compound 235, 3-[(2,4-DIMETHYL-BENZENESULFONYL)-METHYL-AMINO]-5-PHENYL-THIOPHENE-2-CARBOXYLIC ACID], the IC50 (as a rule, the concentration at which inhibition is half-maximal) was < 5 µM.

For the compound `CC(=O)c1ccc(-c2cc(NS(=O)(=O)c3ccc(C)cc3C)c(C(=O)O)s2)cc1` [Compound 236, 5-(4-ACETYL-PHENYL)-3-(2,4-DIMETHYL-BENZENESULFONYLAMINO)-THIOPHENE-2-CARBOXYLIC ACID], the IC50 is < 5 µM.

As for `CC(=O)c1ccc(-c2cc(NS(=O)(=O)c3ccc(C)cc3)c(C(=O)O)s2)cc1` [Compound 237, 5-(4-ACETYL-PHENYL)-3-(TOLUENE-4-SULFONYLAMINO)-THIOPHENE-2-CARBOXYLIC ACID], the IC50 is < 5 µM.

For the compound `CC(=O)c1ccc(-c2cc(NS(=O)(=O)c3ccc(Cl)cc3)c(C(=O)O)s2)cc1` [Compound 238, 5-(4-ACETYL-PHENYL)-3-(4-CHLORO-BENZENESULFONYLAMINO)-THIOPHENE-2-CARBOXYLIC ACID], the IC50 is < 5 µM.

Take `Cc1ccccc1S(=O)(=O)Nc1cc(-c2ccc(C(=O)O)cc2)sc1C(=O)OC(C)(C)C` [Compound 239, 5-(4-CARBOXY-PHENYL)-3-(TOLUENE-2-SULFONYLAMINO)-THIOPHENE-2-CARBOXYLIC ACID TERT-BUTYL ESTER]: the IC50 was in the range of 5 to 20 µM.

As for `Cc1ccc(S(=O)(=O)N(c2cc(-c3ccccc3)sc2C(=O)O)C(C)C)c(C)c1` [Compound 240, 3-[(2,4-DIMETHYL-BENZENESULFONYL)-ISOPROPYL-AMINO]-5-PHENYL-THIOPHENE-2-CARBOXYLIC ACID], the IC50 was in the range of 5 to 20 µM.

On to `CC(=O)N(Cc1ccc(Cl)cc1)c1cc(-c2ccccc2)sc1C(=O)O` [Compound 241, 3-[ACETYL-(4-CHLORO-BENZYL)-AMINO]-5-PHENYL-THIOPHENE-2-CARBOXYLIC ACID], for which the IC50 lay in the range of 5 to 20 µM.

For `CCS(=O)(=O)Nc1cc(-c2ccccc2)sc1C(=O)O` [Compound 242, 3-ETHANESULFONYLAMINO-5-PHENYL-THIOPHENE-2-CARBOXYLIC ACID], the IC50 fell in the range of 5 to 20 µM.

Consider `CC(C)N(C(=O)c1ccc(C(F)(F)F)cc1)c1cc(-c2ccccc2)sc1C(=O)O` [Compound 243, 3-[ISOPROPYL-(4-TRIFLUOROMETHYL-BENZOYL)-AMINO]-5-PHENYL-THIOPHENE-2-CARBOXYLIC ACID], for which the IC50 was < 5 µM.

With `CC(C)=CCN(C(=O)c1ccc(Cl)cc1Cl)c1cc(-c2ccccc2)sc1C(=O)O` [Compound 244, 3-[(2,4-DICHLORO-BENZOYL)-(3-METHYL-BUT-2-ENYL)-AMINO]-5-PHENYL-THIOPHENE-2-CARBOXYLIC ACID], the IC50 was < 5 µM.

As for `CN(C(=O)c1ccc(Cl)nc1Cl)c1cc(-c2ccccc2)sc1C(=O)O` [Compound 245, 3-[(2,6-DICHLORO-PYRIDINE-3-CARBONYL)-METHYL-AMINO]-5-PHENYL-THIOPHENE-2-CARBOXYLIC ACID], the IC50 fell in the range of 5 to 20 µM.

As to `CC(C)N(C(=O)c1ccc(Cl)nc1)c1cc(-c2ccccc2)sc1C(=O)O` [Compound 246, 3-[(6-CHLORO-PYRIDINE-3-CARBONYL)-ISOPROPYL-AMINO]-5-PHENYL-THIOPHENE-2-CARBOXYLIC ACID], the IC50 was > 20 µM.

For the compound `CN(C(=O)c1ccc(C(C)(C)C)cc1)c1cc(-c2ccccc2)sc1C(=O)O` [Compound 247, 3-[(4-TERT-BUTYL-BENZOYL)-METHYL-AMINO]-5-PHENYL-THIOPHENE-2-CARBOXYLIC ACID], the IC50 lay in the range of 5 to 20 µM.

On to `Cc1ccccc1S(=O)(=O)Nc1cc(-c2ccc(C(=O)O)cc2)sc1C(=O)O` [Compound 248, 5-(4-CARBOXY-PHENYL)-3-(TOLUENE-2-SULFONYLAMINO)-THIOPHENE-2-CARBOXYLIC ACID], for which the IC50 was < 5 µM.

Regarding `CC(C)N(C(=O)c1ccc(Cl)nc1Cl)c1cc(-c2ccccc2)sc1C(=O)O` [Compound 250, 3-[(2,6-DICHLORO-PYRIDINE-3-CARBONYL)-ISOPROPYL-AMINO]-5-PHENYL-THIOPHENE-2-CARBOXYLIC ACID], the IC50 was in the range of 5 to 20 µM.
